# Experiments:
# Type in all cases: in vivo
# [1] = tested on: Poa annua; test: Effectivity testing against weed plants ex. 5.1, sprayable formulation on dormant Bermuda grass turf, Abbott %
# From the text: (§1) Each plot was divided by different pre-treatments 1 week before application of the trial treatments: • A) Pre-treatment with glyphosate-isopropylammonium allowing to evaluate in this section the pre-emergence effect against weeds. • B) No pre-treatment, present winter annual weeds are received a post-emergence application.
# (§2) 2005, applied on dormant turf in winter
# (§3) Effectivity was rated in percent (%) herbicidal effect compared with untreated control according to the method of Abbott according to the formula [(X−Y)/X]100 where X is the absolute level/scoring of the control plants, Y is the level/scoring of the treated plants. 100% efficacy means full control; 0% efficacy means no control of the weed; all ratings above 80% are usually acceptable.
# [2] = tested on: Aphanes arvensis; test: Effectivity testing against weed plants ex. 5.1, Abbott %; conditions: 151 DAT
# From the text: as §1, §2, §3
# [3] = tested on: Stellaria media; test: as above
# From the text: as §1, §2, §3
# [4] = tested on: Veronica arvensis; test: as above
# From the text: as §1, §2, §3
smiles,measurement,setting,value
"Cc1ccc2c(c1)[C@H](Nc1nc(N)nc([C@@H](C)F)n1)[C@@H](C)C2 (stereo in doubt) [(A21)/(A22), indaziflam]","Herbicidal effect (%) on Poa annua, Post-emergence application without pre-treatment","[1]; 25 g a.i./ha, 123 DAT",27%
same,"Herbicidal effect (%) on Poa annua, Pre-emergence application after pre-treatment","[1]; 25 g a.i./ha, 123 DAT",96%
same,"Herbicidal effect (%) on Poa annua, Post-emergence application without pre-treatment","[1]; 25 g a.i./ha, 157 DAT",77%
same,"Herbicidal effect (%) on Poa annua, Pre-emergence application after pre-treatment","[1]; 25 g a.i./ha, 157 DAT",92%
same,"Herbicidal effect (%) on Poa annua, Post-emergence application without pre-treatment","[1]; 25 g a.i./ha, 187 DAT",98%
same,"Herbicidal effect (%) on Poa annua, Pre-emergence application after pre-treatment","[1]; 25 g a.i./ha, 187 DAT",96%
same,"Herbicidal effect (%) on Poa annua, Post-emergence application without pre-treatment","[1]; 50 g a.i./ha, 123 DAT",77%
same,"Herbicidal effect (%) on Poa annua, Pre-emergence application after pre-treatment","[1]; 50 g a.i./ha, 123 DAT",98%
same,"Herbicidal effect (%) on Poa annua, Post-emergence application without pre-treatment","[1]; 50 g a.i./ha, 157 DAT",95%
same,"Herbicidal effect (%) on Poa annua, Pre-emergence application after pre-treatment","[1]; 50 g a.i./ha, 157 DAT",100%
same,"Herbicidal effect (%) on Poa annua, Post-emergence application without pre-treatment","[1]; 50 g a.i./ha, 187 DAT",100%
same,"Herbicidal effect (%) on Poa annua, Pre-emergence application after pre-treatment","[1]; 50 g a.i./ha, 187 DAT",100%
same,"Herbicidal effect (%) on Poa annua, Post-emergence application without pre-treatment","[1]; 75 g a.i./ha, 123 DAT",98%
same,"Herbicidal effect (%) on Poa annua, Pre-emergence application after pre-treatment","[1]; 75 g a.i./ha, 123 DAT",100%
same,"Herbicidal effect (%) on Poa annua, Post-emergence application without pre-treatment","[1]; 75 g a.i./ha, 157 DAT",100%
same,"Herbicidal effect (%) on Poa annua, Pre-emergence application after pre-treatment","[1]; 75 g a.i./ha, 157 DAT",100%
same,"Herbicidal effect (%) on Poa annua, Post-emergence application without pre-treatment","[1]; 75 g a.i./ha, 187 DAT",100%
same,"Herbicidal effect (%) on Poa annua, Pre-emergence application after pre-treatment","[1]; 75 g a.i./ha, 187 DAT",100%
same,"Herbicidal effect (%) on Aphanes arvensis, Post-emergence application without pre-treatment",[2]; 25 g a.i./ha,100%
same,"Herbicidal effect (%) on Aphanes arvensis, Pre-emergence application after pre-treatment",[2]; 25 g a.i./ha,50%
same,"Herbicidal effect (%) on Aphanes arvensis, Post-emergence application without pre-treatment",[2]; 50 g a.i./ha,33%
same,"Herbicidal effect (%) on Aphanes arvensis, Pre-emergence application after pre-treatment",[2]; 50 g a.i./ha,100%
same,"Herbicidal effect (%) on Aphanes arvensis, Post-emergence application without pre-treatment",[2]; 75 g a.i./ha,100%
same,"Herbicidal effect (%) on Aphanes arvensis, Pre-emergence application after pre-treatment",[2]; 75 g a.i./ha,100%
same,"Herbicidal effect (%) on Stellaria media, Post-emergence application without pre-treatment","[3]; 25 g a.i./ha, 124 DAT",100%
same,"Herbicidal effect (%) on Stellaria media, Pre-emergence application after pre-treatment","[3]; 25 g a.i./ha, 124 DAT",75%
same,"Herbicidal effect (%) on Stellaria media, Post-emergence application without pre-treatment","[3]; 25 g a.i./ha, 151 DAT",100%
same,"Herbicidal effect (%) on Stellaria media, Pre-emergence application after pre-treatment","[3]; 25 g a.i./ha, 151 DAT",71%
same,"Herbicidal effect (%) on Stellaria media, Post-emergence application without pre-treatment","[3]; 50 g a.i./ha, 124 DAT",100%
same,"Herbicidal effect (%) on Stellaria media, Pre-emergence application after pre-treatment","[3]; 50 g a.i./ha, 124 DAT",100%
same,"Herbicidal effect (%) on Stellaria media, Post-emergence application without pre-treatment","[3]; 50 g a.i./ha, 151 DAT",100%
same,"Herbicidal effect (%) on Stellaria media, Pre-emergence application after pre-treatment","[3]; 50 g a.i./ha, 151 DAT",100%
same,"Herbicidal effect (%) on Stellaria media, Post-emergence application without pre-treatment","[3]; 75 g a.i./ha, 124 DAT",100%
same,"Herbicidal effect (%) on Stellaria media, Pre-emergence application after pre-treatment","[3]; 75 g a.i./ha, 124 DAT",100%
same,"Herbicidal effect (%) on Stellaria media, Post-emergence application without pre-treatment","[3]; 75 g a.i./ha, 151 DAT",100%
same,"Herbicidal effect (%) on Stellaria media, Pre-emergence application after pre-treatment","[3]; 75 g a.i./ha, 151 DAT",100%
same,"Herbicidal effect (%) on Veronica arvensis, Post-emergence application without pre-treatment","[4]; 25 g a.i./ha, 123 DAT",100%
same,"Herbicidal effect (%) on Veronica arvensis, Pre-emergence application after pre-treatment","[4]; 25 g a.i./ha, 123 DAT",81%
same,"Herbicidal effect (%) on Veronica arvensis, Post-emergence application without pre-treatment","[4]; 25 g a.i./ha, 157 DAT",94%
same,"Herbicidal effect (%) on Veronica arvensis, Pre-emergence application after pre-treatment","[4]; 25 g a.i./ha, 157 DAT",100%
same,"Herbicidal effect (%) on Veronica arvensis, Post-emergence application without pre-treatment","[4]; 50 g a.i./ha, 123 DAT",75%
same,"Herbicidal effect (%) on Veronica arvensis, Pre-emergence application after pre-treatment","[4]; 50 g a.i./ha, 123 DAT",100%
same,"Herbicidal effect (%) on Veronica arvensis, Post-emergence application without pre-treatment","[4]; 50 g a.i./ha, 157 DAT",100%
same,"Herbicidal effect (%) on Veronica arvensis, Pre-emergence application after pre-treatment","[4]; 50 g a.i./ha, 157 DAT",100%
same,"Herbicidal effect (%) on Veronica arvensis, Post-emergence application without pre-treatment","[4]; 75 g a.i./ha, 123 DAT",100%
same,"Herbicidal effect (%) on Veronica arvensis, Pre-emergence application after pre-treatment","[4]; 75 g a.i./ha, 123 DAT",100%
same,"Herbicidal effect (%) on Veronica arvensis, Post-emergence application without pre-treatment","[4]; 75 g a.i./ha, 157 DAT",100%
same,"Herbicidal effect (%) on Veronica arvensis, Pre-emergence application after pre-treatment","[4]; 75 g a.i./ha, 157 DAT",100%

# Source: patent US8426342B2, “Method for weed control in lawn” (priority 2008, dated 2013)
